The values below come from patent US12186457B2, “Sphingolipid coatings and process for manufacturing sphingolipid coatings effective for inhibiting biofilm formation” (UNIVERSITY OF CINCINNATI, priority 2015, dated 2025).

A short description of data set [1]: Quantification of sphingosine on the coated surface by mass spectrometry. It counts as physicochemical. Conditions: mass spectrometry (FIG. 18A). How it is done:
Coated plastic surfaces were extracted by a one-step lipid extraction. Briefly, a plastic piece was transferred into a siliconized glass tube and adsorbed sphingosine was extracted by addition of 10 mL methanol and sonification on ice for 1 hour. After centrifugation, the lipid extract was diluted with methanol and 50 pmol of C17-sphingosine was added as internal standard. […] Ion funnel parameters were: high pressure RF voltage 110 V and low pressure RF voltage 60 V. Multiple reaction monitoring (MRM) transition 300.3 m/z>282.3 m z at 8 eV collision energy was used for quantification of sphingosine, whereas MRM transition 286.3 m/z>268.3 m/z at 8 eV collision energy was used for quantification of C17-sphingosine. Quantification was performed with Mass Hunter Software (Agilent Technologies).
To determine the total amount of sphingosine present on the surface of the endotracheal tubes after dip coating, we performed mass spectrometry (FIG. 18A) and a sphingosine kinase radioactivity assay (FIG. 18B). […] Sphingosine was either extracted and analyzed by mass spectrometry (FIG. 18A) or sphingosine kinase assay (FIG. 18B). The amount of sphingosine calculated on the surface after dip coating is (A) 131 nmol/cm^2 and (B) 152.5 nmol/cm^2, respectively.

A short description of data set [2]: Quantification of sphingosine on the coated surface by sphingosine kinase assay. To be noted: sphingosine kinase assay (FIG. 18B). It counts as physicochemical. How it is done:
Plastic pieces were extracted in CHCl3/CH3OH/1N HCl (100:100:1, v/v/v), the lower phase was dried and resuspended in a detergent solution (7.5% [w/v] n-octyl glucopyranoside, 5 mM cardiolipin in 1 mM diethylenetriaminepentaacetic acid (DTPA)). The kinase reaction was initiated by addition of 0.004 units sphingosine kinase in 50 mM HEPES (pH 7.4), 250 mM NaCl, 30 mM MgCl2 1 μM ATP and 5 μCi [^32P]γATP. Samples were incubated for 60 min at 37° C. with shaking (350 rpm), then extracted in 20 μl 1N HCl, 800 μl CHCl3/CH3OH/1N HCl (100:200:1, v/v/v), 240 μl CHCl3 and 2 M KCl. The lower phase was collected, dried, dissolved in 20 μL of CHCl3:CH3OH (1:1, v/v) and separated on Silica G60 thin layer chromatography (TLC) plates using CHCl3/CH3OH/acetic acid/H2O (90:90:15:5, v/v/v/v) for SPH. The TLC plates were analyzed using a phosphoimager.
To determine the total amount of sphingosine present on the surface of the endotracheal tubes after dip coating, we performed mass spectrometry (FIG. 18A) and a sphingosine kinase radioactivity assay (FIG. 18B). Both methods confirmed a concentration of sphingosine in the nmol to μmol range per cm^2. […] Sphingosine was either extracted and analyzed by mass spectrometry (FIG. 18A) or sphingosine kinase assay (FIG. 18B). The amount of sphingosine calculated on the surface after dip coating is (A) 131 nmol/cm^2 and (B) 152.5 nmol/cm^2, respectively.

The nature of a further data set: Solubility in water. The format is physicochemical.
The conditions of data set [3]: inhalation, cited from earlier work.

With `CCCCCCCCCCCCC/C=C/[C@@H](O)[C@@H](N)CO` [sphingosine, D-erythrosphingosine (d18:1)], the “amount of sphingosine calculated on the surface after dip coating” value is reported as 131 nmol/cm^2 in data set [1] and 152.5 nmol/cm^2 in data set [2]. Moreover, the solubility in water entry in the data set “Solubility in water” is “nearly completely insoluble in water”. The observable toxicity entry in data set [3] (mice) is “did not result in any observable toxicity”. For the same molecule, the rates of pneumonia result in data set [3] (susceptible mice) was “reduce rates of pneumonia in susceptible mice”.
For `CCCCCCCCCCCCCC[C@@H](O)[C@@H](O)[C@@H](N)CO` [phytosphingosine, D-ribo-phytosphingosine], the solubility in water result in “Solubility in water” is listed as “nearly completely insoluble in water”.
